This is an account of results in patent US8063008B2, “Enzymatic production of peracids using perhydrolytic enzymes” (E. I. du Pont de Nemours and Company, priority 2005, dated 2011).

“And” between values parts separate entries of the source, which are not always exact repeats. Equal entries are not always repeated. Where two headings read alike, the source gives them in different places.

Assay [1] deals with E. coli ATCC 11229. The assay can be described thus: Determination of Minimum Biocidal Concentration (MBC), XTT reduction inhibition (Example 21). Format: cell-based. The conditions noted are these: for replicate OD (450 nm): replicates 1-8. The source says: The method described by J. Gabrielson, et al. (J. Microbiol. Methods 50: 63-73 (2002)) was employed for determination of the Minimum Biocidal Concentration (MBC) of peracids, or for determination of the MBC of hydrogen peroxide and enzyme substrates. The assay method is based on XTT reduction inhibition, where XTT ((2,3-bis[2-methoxy-4-nitro-5-sulfophenyl]-5-[(phenylamino)carbonyl]-2H-tetrazolium, inner salt, monosodium salt) is a redox dye that indicates microbial respiratory activity by a change in optical density (OD) measured at 490 nm or 450 nm. However, there are a variety of other methods available for testing the activity of disinfectants and antiseptics including, but not limited to viable plate counts, direct microscopic counts, dry weight, turbidity measurements, absorbance, and bioluminescence (see, for example Brock, Semour S., Disinfection, Sterilization, and Preservation, 5th edition, Lippincott Williams & Wilkins, Philadelphia, Pa., USA; 2001).
The filtered enzyme-generated product mixture was diluted 1:5 with sterile water, and the resulting solution was further diluted with sterile water in four 1:1 serial dilutions to obtain the concentrations of PAA and hydrogen peroxide listed in Table 22.
The 1:5 dilution and four serial dilutions were evaluated for biocidal activity by mixing 0.100 mL of the PAA-containing solution with 0.100 mL of an inoculum containing 2.7×10^6 CFU/mL of E. coli ATCC 11229 (American Type Culture Collection, Manassas, Va.) in Millers LB broth diluted with Butterfield Buffer; eight replicates of each mixture were contained in individual wells of a sterile 96-well microtiter plate. After the resulting cell suspensions were allowed to stand for 10 minutes at room temperature, they were tested for viability using the growth indicator XTT (2,3-bis[2-methoxy-4-nitro-5-sulfophenyl]-5-[(phenylamino)carbonyl]-2H-tetrazolium, inner salt, monosodium salt; CAS RN 111072-31-2) according to the method of Gabrielson et al. (J. Microbiol. Methods, 50:63-73 (2002)).
Separately, the cell inoculum was treated with sterile solutions of triacetin (Table 24) or hydrogen peroxide in 50 mM phosphate buffer (pH 6.5) (Table 25) at the concentrations present in each of the biocide dilutions in Table 23 to determine the MBC for these components of the biocide solution.
Background: Tetrazolium assays rely on reduction of a dye to a coloured formazan, in cell work by metabolically active cells.

Assay [2] has as its target protease subtilisin from Bacillus amyloliquefaciens (Bacillus amyloliquefaciens, UniProt P00782). The note with it: cited from earlier work.
Assay [3] in a line: Enzymatic perhydrolysis of propyl acetate at pH 6.5 (Example 11, comparative). In kind it is biochemical. The note with it: pH 6.5, 2 mg enzyme. The protocol: Into a 4-mL glass vial with stir bar was added 2 mg of one of the following enzymes: acetylcholinesterase (Sigma, C-2888), Lipase G “Amano” 50 (Amano), or Chirazyme L2, lyo. (C. antartica lipase B, BioCatalytics) dissolved in 0.050 mL of 50 mM potassium phosphate buffer (pH 6.5). To the vial was then added either a) 0.930 mL of a solution containing 50 mM potassium phosphate buffer (pH 6.5) and 215 mM propyl acetate, followed by 0.021 mL 30% hydrogen peroxide (200 mM final hydrogen peroxide concentration) or b) 0.900 mL of a solution containing 278 mM triacetin in 50 mM potassium phosphate buffer (pH 6.5), 0.024 mL of 50 mM potassium phosphate buffer (pH 6.5), and 0.026 mL 30% hydrogen peroxide (250 mM final concentration). […] A portion of the resulting filtrate was diluted 1:10 with dd water and analyzed for hydrogen peroxide, and the remaining portion of the filtrate was directly analyzed for peracid using the HPLC assay method (Table 12).

Sequence of protease subtilisin from Bacillus amyloliquefaciens (P00782 108-382): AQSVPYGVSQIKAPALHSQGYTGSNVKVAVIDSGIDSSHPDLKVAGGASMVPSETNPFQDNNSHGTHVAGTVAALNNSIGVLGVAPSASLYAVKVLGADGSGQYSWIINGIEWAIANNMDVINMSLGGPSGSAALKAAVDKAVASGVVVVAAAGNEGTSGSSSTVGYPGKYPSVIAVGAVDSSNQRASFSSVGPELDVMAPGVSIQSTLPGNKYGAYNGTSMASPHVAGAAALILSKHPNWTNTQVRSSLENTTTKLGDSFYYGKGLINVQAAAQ

On to `OO` [Hydrogen Peroxide, hydrogen peroxide], for which the MBC in assay [1] (Escherichia coli, ATCC11229, 10 min, E. coli ATCC 11229, 1.35×10^6 CFU/mL, 10 minutes at room temperature, XTT, six-log kill, read-out: Minimum Biocidal Concentration (MBC)) was over 170 µg/mL. Further, the “blank-corrected mean OD” value in assay [1] (H2O2 42.5 ppm) amounted to 1.710; in assay [1] (H2O2 85.1 ppm), 1.466; in assay [1] (H2O2 170.1 ppm), 0.005; in assay [1] (H2O2 340.2 ppm), 0.009; in assay [1] (H2O2 680.5 ppm) it was 0.016. The “mean replicate OD (450 nm)” value in assay [1] (H2O2 42.5 ppm) is reported as 2.134; in assay [1] (H2O2 85.1 ppm) it was 1.890; in assay [1] (H2O2 170.1 ppm) it was 0.4295; in assay [1] (H2O2 340.2 ppm), 0.433; in assay [1] (H2O2 680.5 ppm) it was 0.440. Moreover, the “replicate OD (450 nm)” value in assay [1] (H2O2 42.5 ppm) is 2.007 and 2.027 and 1.971 and 2.117 and 2.666 and 2.170 and 2.082 and 2.034; in assay [1] (H2O2 85.1 ppm), 1.889 and 1.815 and 1.795 and 1.962 and 2.153 and 1.880 and 1.793 and 1.834; in assay [1] (H2O2 170.1 ppm), 0.435 and 0.402 and 0.424 and 0.462 and 0.414 and 0.401 and 0.422 and 0.470; in assay [1] (H2O2 340.2 ppm), 0.423 and 0.439 and 0.425 and 0.432 and 0.452 and 0.440 and 0.428 and 0.424; in assay [1] (H2O2 680.5 ppm), 0.433 and 0.440 and 0.426 and 0.430 and 0.453 and 0.456 and 0.436 and 0.446. For the same compound, the “inactivation of the protease subtilisin” value in assay [2] (0.1 M hydrogen peroxide, in less than 6 minutes) is over 80%; in assay [2] (1.0 M hydrogen peroxide, in less than 4 minutes) it was over 80%.
For acetyl cholinesterase, the “propyl acetate (200 mM), H2O2 (200 mM) peracetic acid (ppm), 5 min” value in assay [3] (5 min) is 0 ppm. The “propyl acetate (200 mM), H2O2 (200 mM) peracetic acid (ppm), 30 min” value in assay [3] (30 min) came out at 0 ppm.
